In patent US5620997A, “Isothiazolones” (Warner-Lambert Company, priority 1995, dated 1997) one finds EC50 data, which are given here for one molecule.

Each structure is given as a SMILES string. pEC50: −log10 of the molar value.

For this test, the system named is HIV. Briefly: CEM cell assay, anti-HIV activity (XTT, protection from viral cytopathic effects). The note with it: Human immunodeficiency virus 1, CCRF-CEM; Effective concentration which protects cells from viral cytopathic effects. Type of test: cell-based. The text has this: The test systems utilized to establish the cellular antiviral activity of the isothiazolones of Formula I are well recognized in the art and are routinely employed for such purpose. For example, the assay utilized to evaluate the compounds activity against the HIV virus is that employed by the U.S. National Cancer Institute as described by Weislow O. S., et al., J. Natl. Cancer Inst., 1989;81:577-586, incorporated herein by reference.
The procedure is designed to detect agents acting at any stage of the virus reproductive cycle. The assay basically involves the killing of T4 lymphocytes by HIV. Small amounts of HIV are added to cells, and at least two complete cycles of virus reproduction are necessary to obtain the required cell killing. Agents which interact with virions, cells, or virus gene-products to interfere with viral activities will protect cells from cytolysis. The system is automated in several features to accommodate large numbers of candidate agents, and is generally designed to detect anti-HIV activity. However, compounds which degenerate or are rapidly metabolized in the culture conditions may not show activity in this screen.
Yet another test system employed to determine antiviral activity is called the CEM cell assay.
T4 lymphocytes (CEM cell line) are exposed to HIV at a virus to cell ratio approximately 0.05, and plated along with noninfected control cells in 96-well microliter plates.
Candidate agent is dissolved in dimethyl sulfoxide (unless otherwise noted), then diluted 1:200 in cell culture medium. Further dilutions (half-log10) are prepared before adding to an equal volume of medium containing either infected or noninfected cells.
Cultures are incubated at 37° in a 5% carbon dioxide atmosphere for 6 or 7 days. The tetrazolium salt, XTT, is added to all wells, and cultures are incubated to allow formazan color development by viable cells J. National Cancer Institute, 1989;81:577-586. Individual wells are analyzed spectrophotometrically to quantitate formazan production, and in addition are viewed microscopically for detection of viable cells confirmation of protective activity.
Drug-tested virus-infected cells are compared with drug-treated noninfected cells and with other appropriate controls (untreated infected and untreated noninfected cells, drug-contain wells without cells, etc.) on the same plate. Data are reviewed in comparison with other tests done at the same time and a determination about activity is made.
On the technique in general: Formazan colour is commonly taken as a measure of viable cells.

The molecule `NS(=O)(=O)c1ccc(-n2sc3ccccc3c2=O)cc1` [Example 1, 4-(3-Oxo-3h-benzo[d]isothiazol-2-yl)-benzenesulfonamide] gave a pEC50 of 5.29.

In general, pEC50 refers to −log10 of the EC50, conventionally taken in molar units.
